For one data set, the system named is HIV-1. To be noted: treatment period of 10-14 days, dose-dependent; cited from earlier work.
For data set [1] the following is noted: single administration of TAK-652 solution (Baba et al., 2005); cited from earlier work.
Data set [2] deals with reporter viruses pseudotyped with HIV-1JR-FL envelope. The class given is cell-based. Also on record: CI90: unit not given beside the values. The note with it: for CI50 / CI90: labelled 1st inhibitor with 2nd inhibitor PRO 140, envelope JRFL, equimolar (1:10 PRO 140 to zidovudine or nevirapine); for inhibition of HIV-1 pseudovirus entry: result in words, data not shown. The text has this: HIV-1 pseudoparticles (HIV-1pp) are generated in 293T cells by transient coexpression of an HIV-1-based NL4/3luc+env− plasmid and a construct encoding HIV-1JRFL Env. The NL4/3luc+env− plasmid was obtained from the NIH AIDS Research and Reference Reagent Program (Cat. No. 3418), and the HIV-1JRFL Env was inserted into the pcDNA3.1 vector (Invitrogen). Briefly, 293T cells are calcium phosphate transfected with a 1:1 ratio of NL4/3luc+env− reporter vector and Env expression vector in Hepes buffer (Profection Mammalian Transfection Kit, Promega). After 16 h the transfection medium is aspirated and fresh cell culture medium (DMEM with 10% FBS, glutamine and antibiotics) is added and the incubation is continued at 37° C. for an additional 24-32 h. Cell culture supernatants are collected 48 h post-transfection and centrifuged at 1,400 rpm for 10 min to pellet cell debris. The viral supernatant is brought to a final concentration of 5% sucrose and stored aliquoted at −80° C.
U87-CD4-CCR5 cells were obtained from the NIH AIDS Research and Reference Program (Cat. No. 4035). These cells are maintained in culture medium (DMEM with 10% FBS, antibiotics and glutamine) containing 0.3 mg/ml G418 and 0.5 mg/ml puromycin. Cells are grown in T175-cm^2 flasks at 37° C. and diluted 1:5 every 3-4 days. For assay plate preparation, cells are trypsinized and seeded into wells of 96-well tissue-culture treated flat bottom opaque polystyrene plates (Perkin Elmer, Boston, Mass.) at a density of 3×10^3 cells/well. Plates are incubated for no more than 4 h at 37° C. in a humidified 5% CO2 incubator prior to their use in the HIV-1 pp susceptibility assay.
Fifty μl of diluted compound at 4× the desired final concentration are added per well. For compounds solubilized in DMSO, the 4× stock will contain 2% DMSO (such that the final DMSO concentration in the assay is always 0.5% for small molecules). Control wells receiving no compound are included on each plate. In addition, an AZT inhibition control is included in each assay. Compounds are tested individually and at a fixed mass or molar ratio over a broad range of concentrations.
A vial of frozen, aliquoted HIV-1pp is thawed in a 37° C. waterbath and then placed on wet ice. Virus is diluted in cold cell culture medium as necessary to achieve the desired final virus concentration in the HIV-1pp assay (about 10,000 relative light units (rlu) per well). 50 μl of diluted virus are added per well, bringing the final well volume to 200 μl. A no-virus control (minimum or background luminescence) and a no-compound control (maximum luminescence) are included on each plate. The plates are incubated for 72 h at 37° C. in a humidified 5% CO2 incubator followed by processing for luciferase signal (see below).
Assay medium is aspirated and 200 μl of PBS are added to each well. […] Assay plates are then frozen for at least 2 h at −80° C. followed by thawing at room temperature and vigorous mixing with an electronic pipettor. 25 μl from each well are transferred to an opaque 96-well plate (Costar #3922). Four replicates are pooled into the same well on the opaque plate. 100 μl of freshly thawed and reconstituted luciferase substrate (Luciferase Assay System, Promega—Cat. No. E1501) are added to each well of the plate with the electronic pipettor, and luminescence is detected immediately on a Dynex MLX plate reader set to medium gain.
The percent inhibition is derived as follows: [1−(luciferase activity in the presence of drug/luciferase activity in the absence of drug)]×100. IC50 values are determined by fitting the inhibition data with a non-linear, four-parameter, variable slope equation (GraphPad Prism, ver. 4.02; GraphPad Software, San Diego, Calif.). Upper and lower inhibition values are constrained to 100% and 0%, respectively for curve fitting. […]

The subject of data set [3] is reporter viruses pseudotyped with HIV-1SF162 envelope. The class given is cell-based. Also on record: CI90: unit not given beside the values. To be noted: labelled 1st inhibitor with 2nd inhibitor PRO 140; envelope SF162; equimolar (1:10 PRO 140 to zidovudine or nevirapine). From the text: A self-inactivating (SIN) vector was derived from the pNL4-3ΔEnv-luciferase vector (Dragic et al. 1996) by deleting 507 basepairs in the U3 region of the 3′ long terminal repeat (LTR) so as to remove the TATA box and transcription factor binding sites. The human cytomegalovirus promoter was inserted upstream of the luciferase (luc) gene to enable expression of luciferase following integration.
Reporter viruses pseudotyped with HIV-1JR-FL or HIV-1SF162 envelopes were generated by cotransfection of 293T cells with the SIN vector and the appropriate pcDNA env-expressing vector as previously described (Dragic et al. 1996). […] Cultures were incubated for 72 h at 37° C. in DMEM containing 10% fetal bovine serum, 1 mg/mL puromycin, 0.3 mg/mL geneticin, antibiotics, and 0.5% DMSO. Luciferase activity (relative light units or RLU) was measured using BrightGlo reagent (Promega, Madison, Wis.) according to the manufacturer's instructions. Percent inhibition was calculated as: (1−RLU in the presence of inhibitor/RLU in the absence of inhibitor)×100.
Experimental design and data analysis were based on the combination index (CI) method (Chou et al. 1991; Chou et al. 1984). Compounds were tested individually and in combination at a fixed molar ratio over a range of serial dilutions. […] The mutually exclusive CI formula was used for combinations of CCR5 inhibitors, while the mutually non-exclusive formula was utilized for combinations of inhibitors to distinct targets (Chou et al. 1991). Each test was conducted 4-12 times. Synergy, additivity and antagonism are indicated by CI<1, CI=1 and CI>1, respectively.

Data set [4] deals with HIV-1JR-FL envelope-mediated membrane fusion (HeLa-EnvJRFL and CEM NKR-CCR5 cells) (Homo sapiens, UniProt P51681). The data set can be described thus: cell-based. The note with it: 2D7 in combination with the labelled inhibitor, 1:1 molar ratio. Here is the method: (§1) The HIV-1 RET assay has been described in detail previously (Litwin et al., 1996). Briefly, fluorescein octadecyl ester (F18; Molecular Probes, Eugene, Oreg.; 5 mg/ml in ethanol), was diluted 1:800 in DMEM labeling medium (DMEM; Invitrogen, Carlsbad, Calif.) with 10% fetal bovine serum (FBS; HyClone, Logan, Utah) and adjusted to an A506 of 0.34±10%. Octadecyl rhodamine B chloride (R18; Molecular Probes; 10 mg/ml in ethanol) was diluted 1:2050 in labeling medium and adjusted to an A565 of 0.52±10%. Both dyes were further diluted 2-fold by addition to cells in T75-cm^2 flasks. HeLa-EnvJRFL and CEM NKR-CCR5 cells were incubated overnight in F18- and R18-containing culture medium, respectively. The following day, medium from HeLa-EnvJRFL cells was removed and 10 ml of 0.5 mM EDTA was added and incubated at 37° C. for 5 min. EDTA was removed and the flask was returned to the incubator for another 5 min followed by striking of the flask to dislodge cells. […] Suspension CEM NKR-CCR5 cells were added directly to a separate 50-ml conical centrifuge tube. Both cell lines were centrifuged at 300×g for 5 min. The supernatant was discarded and cells were resuspended in 10 ml of PBS-/15% FBS. The centrifugation/wash step was repeated twice, after which the cells were counted and concentrations adjusted to 1.5×10^6 cells/ml. Ten μl of each cell type (15,000 cells) were seeded into wells of a 384-well plate. Inhibitor compounds were added immediately thereafter to bring the final well volume to 40 μl, and the plates were incubated for 4 h at 37° C. Compounds were tested individually and in combination at a fixed molar ratio or mass ratio over a range of serial dilutions. The plates were then read on a fluorescence plate reader (Victor^2, Perkin Elmer, Boston, Mass.) using the excitation/emission filter combinations shown in Table 6.
HIV-1JR-FL envelope-mediated membrane fusion (HeLa-EnvJRFL and CEM NKR-CCR5 cells) (Homo sapiens, UniProt P51681), sequence (P51681 whole entry, the tested form may be a part): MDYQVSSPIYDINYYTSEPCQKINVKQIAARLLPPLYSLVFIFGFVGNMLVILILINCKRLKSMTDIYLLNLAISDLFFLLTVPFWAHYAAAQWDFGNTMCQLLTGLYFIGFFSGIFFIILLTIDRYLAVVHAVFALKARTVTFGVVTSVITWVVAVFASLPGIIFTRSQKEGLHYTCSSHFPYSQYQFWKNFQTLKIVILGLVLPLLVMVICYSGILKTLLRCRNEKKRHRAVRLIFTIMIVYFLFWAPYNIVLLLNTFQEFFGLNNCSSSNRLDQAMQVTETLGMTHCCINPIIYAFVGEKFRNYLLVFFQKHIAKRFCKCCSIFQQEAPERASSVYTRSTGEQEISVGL
(§2) The “% RET” was calculated according to the following formula after subtraction of background (blank) readings: […]
(§3) The “% Inhibition” was calculated according to the following formula: […]
(§4) Fifty percent inhibition (IC50) values were determined by fitting the inhibition data with a non-linear, four-parameter, variable slope equation (GraphPad Prism, 4.02; GraphPad Software, San Diego, Calif.). Upper and lower inhibition values were constrained to 100% and 0%, respectively for curve fitting.
(§5) For testing, small molecule compounds were solubilized in dimethylsulfoxide (DMSO) to 10 mM and then diluted in DMSO to 200× the final concentration to be utilized in the antiviral assay. Serial dilutions of small molecules were conducted in DMSO. Subsequent dilutions were conducted in medium to achieve a final DMSO concentration in the assay of 0.5%. Peptides and mAbs were diluted in PBS in the absence of DMSO.
(§6) HeLa cells were engineered to express HIV-1 gp120/gp41 from the macrophage-tropic primary isolate JRFL as described (HeLa-EnvJRFL; Litwin et al., 1996). Briefly, the HIV-1LAI Env gene was excised from the plasmid pMA243 (Dragic et al., 1992) and the HIV-1JRFL Env gene was inserted. The HIV-1JRFL Env gene was amplified from the plasmid pUCFL112-1 (Koyanagi et al., 1987). The resulting plasmid, designated JR-FL-pMA243, was sequenced by standard methods and transfected into HeLa cells using lipofectin (Gibco BRL/Invitrogen, Carlsbad, Calif.). HeLa-EnvJRFL transfectants were selected in methotrexate (Sigma, St. Louis, Mo.) and cloned twice by limiting dilution. The transduced human T cell leukemia line CEM NKR-CCR5 cells were obtained from the NIH AIDS Research and Reference Program (Cat. No. 458).
(§7) The HIV-1 RET assay has been described in detail previously (Litwin et al., 1996). Briefly, fluorescein octadecyl ester (F18; Molecular Probes, Eugene, Oreg.; 5 mg/ml in ethanol), was diluted 1:800 in DMEM labeling medium (DMEM; Invitrogen, Carlsbad, Calif.) with 10% fetal bovine serum (FBS; HyClone, Logan, Utah) and adjusted to an A506 of 0.34±10%.

The conditions of data set [5]: in vivo, cited from earlier work.
Data set [6] relates to HIV-1JR-FL envelope-mediated membrane fusion (HeLa-EnvJRFL and CEM NKR-CCR5 cells). Kind of data set: cell-based. The note with it: 1st inhibitor alone (Table 13). On the procedure:
as §1, §2, §3, §4, §5, §6, §7

These results are taken from patent US20090074766A1, “Methods of inhibiting HIV-2 infection” (priority 2007, published 2009).

Broadly, the IC50 is the midpoint of a concentration-inhibition curve. One may read the IC90 as the point of the concentration-response curve where the effect stands at 90%.

Turning to `CCCCN1C(=O)[C@@H]([C@H](O)C2CCCCC2)NC(=O)C12CCN(Cc1ccc(Oc3ccc(C(=O)O)cc3)cc1)CC2` [GW873140], the “mean reductions in HIV-1 RNA levels” value in the data set on HIV-1 is given as approximately 1 log10.

As to `CCO/N=C(\c1ccc(Br)cc1)C1CCN(C2(C)CCN(C(=O)c3c(C)cc[n+]([O-])c3C)CC2)CC1` [SCH-C], the “mean reductions in HIV-1 RNA levels” value with HIV-1 is given as approximately 1 log10.

`CCCCOCCOc1ccc(-c2ccc3c(c2)/C=C(/C(=O)Nc2ccc([S@@+]([O-])Cc4cncn4CCC)cc2)CCCN3CC(C)C)cc1.CS(=O)(=O)O` [TAK-652]: the safety and tolerability entry in data set [1] is “safe and well tolerated”.

In data set [2], `Cc1ccnc2c1NC(=O)c1cccnc1N2C1CC1` [nevirapine] gave a CI50 of 1.2 ± 0.38 and a CI90 of 0.73 ± 0.28. In data set [3], the CI50 is given as 1.2 ± 0.34 and the CI90 is recorded as 0.63 ± 0.19.

With `Cc1cn([C@H]2C[C@H](N=[N+]=[N-])[C@@H](CO)O2)c(=O)[nH]c1=O` [zidovudine], the values for the CI50 in data set [2] and in data set [3] were 1.1 ± 0.38 and 0.99 ± 0.27, respectively. In addition, the CI90 in data set [2] was 0.85 ± 0.26; in data set [3] it was 1.0 ± 0.38.

For “RANTES: CC-chemokine, natural peptide ligand of CCR5, purchased from R&D Systems”, in data set [2], the “inhibition of HIV-1 pseudovirus entry” value was “Neither TAK-779 nor RANTES mediated consistent, high-level inhibition”. Further, in data set [4], the “Mean Dose Reduction (2D7)” value stood at 1.94 ± 0.08 and the “Mean Dose Reduction (Cpd in combination)” value was 10.18 ± 1.86.

On to TAK-779, for which the “inhibition of HIV-1 pseudovirus entry” value in data set [2] was “Neither TAK-779 nor RANTES mediated consistent, high-level inhibition”. Further, the oral bioavailability result in data set [5] (po) was “poor oral bioavailability”. Also, the local tolerability result in data set [5] is on record as “local injection site irritation”.

Consider enfuvirtide, for which, in data set [6], the IC50 came out at 0.0086 µM and the IC90 is 0.066 µM.
